Data published in patent publication US4210749A, “Substituted 1,2,4,5-tetrahydro-3H,3 benzazepines” (priority 1979, dated 1980).
Counter-ions that a name gives are not always drawn.

Experiments:
[1] = tested on: isolated segments of guinea pig ileum (histamine); assay: Antihistaminic activity: block of histamine in isolated segments of guinea pig ileum
[2] = tested on: isolated segments of guinea pig ileum (acetylcholine); assay: Anticholinergic activity: block of acetylcholine in isolated segments of guinea pig ileum
sciatic block = assay: Local anesthetic sciatic block, Table IV; type: in vivo; details: 1%
[3] = Mouse tail stimulation (MST), Table IV; type: in vivo; set-up: unit not given here; details: S.C.
[4] = I.P. symptomatology (highest tolerated dose, median lethal dose), Table IV; type: in vivo; details: in vivo, ip; for MTD: read-out: HTD (highest tolerated dose)
morphine analgesia = type: in vivo, rat; details: for Narcotic antagonist potency relative to pentazocine: Table II
[5] = Narcotic antagonism I.P., Table IV; type: in vivo
[6] = Analgesic activity, hot plate method; type: in vivo
in vivo [7] = assay: in vivo
in vivo [8] = assay: in vivo; remark: listed apart in the source
[9] = Analgesic activity, writhing method; type: in vivo
[10] = Analgesic activity in hot plate and writhing tests, overall comparison; details: for Analgesic efficacy by route of administration: oral vs parenteral
[11] = tested on: phenylbenzoquinone writhing; assay: Phenylbenzoquinone (PBQ) writhing analgesia, Table IV; type: in vivo; details: sc; S.C.; marked * Median effective dose

SMILES	Conc. for 50% block of Histamine [1]	Conc. for 50% block of Acetylcholine [2]	Local Anesthetic Sciatic Block (sciatic block)	MST (mouse tail stimulation) [3]	LD50 [4]	MTD [4]	Narcotic Antagonism [5]	ED50 ([6]; ip)	ED50 ([6]; po)	LD50 (in vivo [7]; po)	NOAEL (in vivo [8]; po)	ED50 ([9]; po)	other results
COc1ccc2c(c1)CCN(C(C)Cc1ccccc1)CC2 (racemic) [Example 26, 7-Methoxy-3-(1-methyl-2-phenylethyl)-1,2,4,5-tetrahydro-3H,3-benzazepine]	54 μg/20 ml	94 μg/20 ml											
CN1[C@@H]2CC[C@H]1C[C@@H](OC(=O)C(CO)c1ccccc1)C2 (stereo partly drawn) [Atropine, reference compound]	37 μg/20 ml	0.0035 μg/20 ml											
CC(C)=CCN1CCc2ccc(O)cc2CC1 [Example 4, 3-(3,3-Dimethylallyl)-7-hydroxy-1,2,4,5-tetrahydro-3H,3-benzazepine]	76 μg/20 ml	120 μg/20 ml	Positive	> 56	96 mg/kg	30 mg/kg	Positive						Narcotic antagonist potency relative to pentazocine (morphine analgesia): more potent antagonist than pentazocine
COc1ccc2c(c1)CCN(CC1CC1)CC2 [Example 7, 3-Cyclopropylmethyl-7-methoxy-1,2,4,5-tetrahydro-3H,3-benzazepine]	20 μg/20 ml	220 μg/20 ml	Positive		100 mg/kg	40 mg/kg	Negative						
C=CCN1CCc2ccc(OC)cc2CC1 [Example 14, 3-Allyl-7-methoxy-1,2,4,5-tetrahydro-3H,3-benzazepine]			Positive		80 mg/kg	60 mg/kg	Positive	42 mg/kg	> 178 mg/kg	> 1000 mg/kg	178 mg/kg	> 178 mg/kg	ED50 ([9]; sc): > 56 mg/kg; Narcotic antagonist potency relative to pentazocine (morphine analgesia): about equipotent to pentazocine
COc1ccc2c(c1)CCN(C)CC2 [Example 18, 7-Methoxy-3-methyl-1,2,4,5-tetrahydro-3H,3-benzazepine]					80 mg/kg	25 mg/kg	Negative	20 mg/kg	140 mg/kg			> 180 mg/kg	Analgesic efficacy by route of administration [10]: active by the oral route; ED50 ([9]; sc): > 32 mg/kg
CCCN1CCc2ccc(O)cc2CC1 [Example 23, 7-Hydroxy-3-n-propyl-1,2,4,5-tetrahydro-3H,3-benzazepine]	75 μg/20 ml	> 1000 μg/20 ml	Positive		50 mg/kg	20 mg/kg	Positive						
COc1ccc2c(c1)CCN(CCc1ccccc1)CC2 [Example 24, 7-Methoxy-3-phenethyl-1,2,4,5-tetrahydro-3H,3-benzazepine]	10 μg/20 ml	74 μg/20 ml	Positive		> 200 mg/kg	> 50 mg/kg		12 mg/kg	> 178 mg/kg	> 1000 mg/kg	178 mg/kg	> 178 mg/kg	Analgesic activity ranking [10]: most active compounds; Separation between effective dose and toxic or lethal doses [10]: greatest separation between effective dose and toxic or lethal doses; ED50 ([9]; sc): ~11 mg/kg; Narcotic antagonist potency relative to pentazocine (morphine analgesia): about equipotent to pentazocine
Oc1ccc2c(c1)CCN(CCc1ccccc1)CC2 [Example 25, 7-Hydroxy-3-phenethyl-1,2,4,5-tetrahydro-3H,3-benzazepine]								26 mg/kg	> 178 mg/kg	> 1000 mg/kg	178 mg/kg	> 178 mg/kg	
COc1ccc2c(c1)CCN(CC=Cc1ccccc1)CC2 [Example 28, 7-Methoxy-3-(3-phenylallyl)-1,2,4,5-tetrahydro-3H,3-benzazepine]				10	60 mg/kg	20 mg/kg	Positive	> 18 mg/kg	125 mg/kg			120 mg/kg	Analgesic efficacy by route of administration [10]: active by the oral route; ED50 ([9]; sc): > 18 mg/kg; Narcotic antagonist potency relative to pentazocine (morphine analgesia): about equipotent to pentazocine
Oc1ccc2c(c1)CCN(CC=Cc1ccccc1)CC2 [Example 29, 7-Hydroxy-3-(3-phenylallyl)-1,2,4,5-tetrahydro-3H,3-benzazepine]								230 mg/kg	> 1000 mg/kg	> 1000 mg/kg	1000 mg/kg	210 mg/kg	NOAEL (in vivo [8]; ip): 300 mg/kg
COc1ccc2c(c1)CCN(CCN1CCN(c3ccccc3)CC1)CC2 [Example 31, 7-Methoxy-3-[2-(4-phenyl-1-piperazinyl)ethyl]-1,2,4,5-tetrahydro-3H,3-benzazepine]			Positive	20	80 mg/kg	30 mg/kg	Negative	~8 mg/kg	~80 mg/kg	~300 mg/kg	100 mg/kg	> 100 mg/kg	LD50 (in vivo [7]; ip): ~80 mg/kg; NOAEL (in vivo [8]; ip): 32 mg/kg; Analgesic activity ranking [10]: most active compounds; Separation between effective dose and toxic or lethal doses [10]: greatest separation between effective dose and toxic or lethal doses
COc1ccc2c(c1)CC(C)N(CCc1ccccc1)CC2 (stereo not drawn) [Example 36, 8-Methoxy-2-methyl-3-phenethyl-1,2,4,5-tetrahydro-3H,3-benzazepine hydrochloride]			Insoluble	10	60 mg/kg	10 mg/kg	Negative						
c1ccc2c(c1)CCN(CC1CC1)CC2 [Example 37, 3-Cyclopropylmethyl-1,2,4,5-tetrahydro-3H,3-benzazepine hydrochloride]	20 μg/20 ml	540 μg/20 ml		10	60 mg/kg	10 mg/kg	Negative	12 mg/kg	37 mg/kg			49 mg/kg	Analgesic efficacy by route of administration [10]: active by the oral route; Writhing test activity relative to pentazocine ([9]; oral route): approximately twice as active as pentazocine; ED50 ([9]; sc): > 18 mg/kg
COc1ccc2c(c1)CC(C)N(C)CC2 (stereo not drawn) [Example 39, 8-Methoxy-2,3-dimethyl-1,2,4,5-tetrahydro-3H,3-benzazepine hydrochloride]			Positive		~150 mg/kg	10 mg/kg	Negative						ED50 [11]: > 30 mg/kg
COc1ccc2c(c1)CC(C)N(CCN1CCN(c3ccccc3)CC1)CC2 (stereo not drawn) [Example 40, 8-Methoxy-2-methyl-3-[2-(4-phenyl-1-piperazinyl)-ethyl]-1,2,4,5-tetrahydro-3H,3-benzazepine dihydrochloride]			Positive		> 100 mg/kg	30 mg/kg	Negative						ED50 [11]: > 30 mg/kg
CC1Cc2cc(O)ccc2CCN1CC1CC1 (stereo not drawn) [Example 41, 3-Cyclopropylmethyl-8-hydroxy-2-methyl-1,2,4,5-tetrahydro-3H,3-benzezepine hydrochloride]			Positive	> 30	~60 mg/kg	~3 mg/kg	Negative						
C=CCN1CC[C@]23c4c5ccc(O)c4O[C@H]2[C@@H](O)C=C[C@H]3[C@H]1C5 [Nalorphine, reference compound]													Antagonism of Morphine Analgesia, times more active than compounds listed above (morphine analgesia; rat, in vivo, sc): 20-100 times
CC(C)=CCN1CCC2(C)c3cc(O)ccc3CC1C2C (stereo not drawn) [Pentazocine, reference compound]								100 mg/kg	> 316 mg/kg	~800 mg/kg	316 mg/kg	70 mg/kg	LD50 (in vivo [7]; ip): > 600 mg/kg; NOAEL (in vivo [8]; ip): 316 mg/kg
